{"source": "PubChem BioAssay AID330", "about": "(DTP/NCI, 2004)", "test_system": "P388 leukemia ip, CD2F1 mice, survival T/C", "assay": "NCI In Vivo Anticancer Drug Screen. Data for tumor model P388 Leukemia (intraperitoneal) in CD2F1 (CDF1) mice", "settings": "endpoint: median survival time, higher = longer survival", "how_it_was_run": "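Mice carrying the transplanted tumor received test compound or vehicle. Survival was recorded in each group, and the value is the treated-group measurement divided by that of the vehicle-treated control group.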", "note": "“And” between values parts separate entries of the source, which are not always exact repeats. Equal values may be shown once. Inconclusive results and toxic doses are left out.", "data": [{"molecule": "ClCC[N+]12CC[N+](CCCl)(CC1)C2", "values": [{"measurement": "T/C", "setting": "dose: 6.25 mg/kg/injection, schedule: Q01DX006 (ip), vehicle: water", "value": "120 % of control"}, {"measurement": "T/C", "setting": "dose: 6.25 mg/kg/injection, schedule: Q01DX009 (ip), vehicle: distilled water + Tween-80", "value": "117 % of control"}, {"measurement": "T/C", "setting": "dose: 6.25 mg/kg/injection, schedule: Q01DX009 (ip), vehicle: water", "value": "115 % of control [middle of 4 runs]"}, {"measurement": "T/C", "setting": "dose: 7.5 mg/kg/injection, schedule: Q01DX005 (iv), vehicle: clinical formulation", "value": "105 % of control"}, {"measurement": "T/C", "setting": "dose: 7.5 mg/kg/injection, schedule: Q01DX005 (iv), vehicle: water", "value": "100 % of control and 106 % of control"}, {"measurement": "T/C", "setting": "dose: 12.5 mg/kg/injection, schedule: Q01DX006 (ip), vehicle: water", "value": "101 % of control"}, {"measurement": "T/C", "setting": "dose: 12.5 mg/kg/injection, schedule: Q01DX009 (ip), vehicle: saline", "value": "105 % of control"}, {"measurement": "T/C", "setting": "dose: 12.5 mg/kg/injection, schedule: Q01DX009 (ip), vehicle: water", "value": "100 % of control and 104 % of control and 107 % of control"}, {"measurement": "T/C", "setting": "dose: 15.0 mg/kg/injection, schedule: Q01DX005 (iv), vehicle: clinical formulation", "value": "105 % of control"}, {"measurement": "T/C", "setting": "dose: 15.0 mg/kg/injection, schedule: Q01DX005 (iv), vehicle: water", "value": "99 % of control and 110 % of control"}, {"measurement": "T/C", "setting": "dose: 15.0 mg/kg/injection, schedule: Q01DX009 (ip), vehicle: clinical formulation", "value": "100 % of control"}, {"measurement": "T/C", "setting": "dose: 15.0 mg/kg/injection, schedule: Q01DX009 (ip), vehicle: water", "value": "99 % of control and 116 % of control"}, {"measurement": "T/C", "setting": "dose: 20.0 mg/kg/injection, schedule: Q01DX005 (ip), vehicle: water", "value": "106 % of control"}, {"measurement": "T/C", "setting": "dose: 21.08 mg/kg/injection, schedule: Q01DX009 (ip), vehicle: water", "value": "115 % of control and 103 % of control"}, {"measurement": "T/C", "setting": "dose: 23.71 mg/kg/injection, schedule: Q01DX005 (iv), vehicle: clinical formulation", "value": "105 % of control"}, {"measurement": "T/C", "setting": "dose: 23.71 mg/kg/injection, schedule: Q01DX005 (iv), vehicle: water", "value": "110 % of control and 105 % of control"}, {"measurement": "T/C", "setting": "dose: 25.0 mg/kg/injection, schedule: Q01DX006 (ip), vehicle: water", "value": "113 % of control"}, {"measurement": "T/C", "setting": "dose: 25.0 mg/kg/injection, schedule: Q01DX009 (ip), vehicle: water", "value": "109 % of control and 115 % of control"}, {"measurement": "T/C", "setting": "dose: 30.0 mg/kg/injection, schedule: Q01DX001 (ip), vehicle: water", "value": "113 % of control"}, {"measurement": "T/C", "setting": "dose: 30.0 mg/kg/injection, schedule: Q01DX001 (iv), vehicle: water", "value": "109 % of control"}, {"measurement": "T/C", "setting": "dose: 30.0 mg/kg/injection, schedule: Q01DX005 (ip), vehicle: water", "value": "163 % of control"}, {"measurement": "T/C", "setting": "dose: 30.0 mg/kg/injection, schedule: Q01DX005 (iv), vehicle: clinical formulation", "value": "109 % of control"}, {"measurement": "T/C", "setting": "dose: 30.0 mg/kg/injection, schedule: Q01DX005 (iv), vehicle: water", "value": "113 % of control"}, {"measurement": "T/C", "setting": "dose: 30.0 mg/kg/injection, schedule: Q01DX005 (oral), vehicle: water", "value": "110 % of control"}, {"measurement": "T/C", "setting": "dose: 30.0 mg/kg/injection, schedule: Q01DX009 (ip), vehicle: clinical formulation", "value": "100 % of control"}, {"measurement": "T/C", "setting": "dose: 30.0 mg/kg/injection, schedule: Q01DX009 (ip), vehicle: water", "value": "123 % of control"}, {"measurement": "T/C", "setting": "dose: 30.0 mg/kg/injection, schedule: Q01DX009 (oral), vehicle: water", "value": "120 % of control"}, {"measurement": "T/C", "setting": "dose: 31.61 mg/kg/injection, schedule: Q01DX009 (ip), vehicle: water", "value": "119 % of control"}, {"measurement": "T/C", "setting": "dose: 35.56 mg/kg/injection, schedule: Q01DX005 (iv), vehicle: clinical formulation", "value": "111 % of control"}, {"measurement": "T/C", "setting": "dose: 35.56 mg/kg/injection, schedule: Q01DX005 (iv), vehicle: water", "value": "110 % of control and 106 % of control"}, {"measurement": "T/C", "setting": "dose: 40.0 mg/kg/injection, schedule: Q01DX005 (ip), vehicle: water", "value": "114 % of control"}, {"measurement": "T/C", "setting": "dose: 44.0 mg/kg/injection, schedule: Q01DX009 (ip), vehicle: water", "value": "158 % of control"}, {"measurement": "T/C", "setting": "dose: 47.42 mg/kg/injection, schedule: Q01DX009 (ip), vehicle: water", "value": "160 % of control"}, {"measurement": "T/C", "setting": "dose: 50.0 mg/kg/injection, schedule: Q01DX006 (ip), vehicle: water", "value": "123 % of control"}, {"measurement": "T/C", "setting": "dose: 50.0 mg/kg/injection, schedule: Q01DX009 (ip), vehicle: saline with Tween-80", "value": "100 % of control"}, {"measurement": "T/C", "setting": "dose: 50.0 mg/kg/injection, schedule: Q01DX009 (ip), vehicle: saline", "value": "162 % of control and 180 % of control"}, {"measurement": "T/C", "setting": "dose: 50.0 mg/kg/injection, schedule: Q01DX009 (ip), vehicle: water", "value": "113 % of control and 120 % of control"}, {"measurement": "T/C", "setting": "dose: 50.0 mg/kg/injection, schedule: Q04DX003 (ip), vehicle: distilled water + Tween-80", "value": "124 % of control"}, {"measurement": "T/C", "setting": "dose: 53.34 mg/kg/injection, schedule: Q01DX005 (iv), vehicle: water", "value": "115 % of control and 111 % of control"}, {"measurement": "T/C", "setting": "dose: 60.0 mg/kg/injection, schedule: Q01DX001 (ip), vehicle: water", "value": "115 % of control"}, {"measurement": "T/C", "setting": "dose: 60.0 mg/kg/injection, schedule: Q01DX001 (iv), vehicle: water", "value": "117 % of control"}, {"measurement": "T/C", "setting": "dose: 60.0 mg/kg/injection, schedule: Q01DX001 (oral), vehicle: water", "value": "109 % of control"}, {"measurement": "T/C", "setting": "dose: 60.0 mg/kg/injection, schedule: Q01DX005 (ip), vehicle: water", "value": "154 % of control and 170 % of control"}, {"measurement": "T/C", "setting": "dose: 60.0 mg/kg/injection, schedule: Q01DX005 (iv), vehicle: clinical formulation", "value": "120 % of control"}, {"measurement": "T/C", "setting": "dose: 60.0 mg/kg/injection, schedule: Q01DX005 (oral), vehicle: water", "value": "119 % of control"}, {"measurement": "T/C", "setting": "dose: 60.0 mg/kg/injection, schedule: Q01DX009 (ip), vehicle: water", "value": "155 % of control"}, {"measurement": "T/C", "setting": "dose: 66.0 mg/kg/injection, schedule: Q01DX009 (ip), vehicle: water", "value": "167 % of control"}, {"measurement": "T/C", "setting": "dose: 71.12 mg/kg/injection, schedule: Q01DX009 (ip), vehicle: clinical formulation", "value": "173 % of control"}, {"measurement": "T/C", "setting": "dose: 71.12 mg/kg/injection, schedule: Q01DX009 (ip), vehicle: water", "value": "177 % of control and 165 % of control"}, {"measurement": "T/C", "setting": "dose: 80.0 mg/kg/injection, schedule: Q01DX005 (iv), vehicle: clinical formulation", "value": "122 % of control"}, {"measurement": "T/C", "setting": "dose: 80.0 mg/kg/injection, schedule: Q01DX005 (iv), vehicle: water", "value": "119 % of control and 112 % of control"}, {"measurement": "T/C", "setting": "dose: 100.0 mg/kg/injection, schedule: Q01DX005 (ip), vehicle: water", "value": "155 % of control"}, {"measurement": "T/C", "setting": "dose: 100.0 mg/kg/injection, schedule: Q01DX009 (ip), vehicle: saline with Tween-80", "value": "189 % of control and 198 % of control and 213 % of control"}, {"measurement": "T/C", "setting": "dose: 100.0 mg/kg/injection, schedule: Q01DX009 (ip), vehicle: saline", "value": "153 % of control and 163 % of control and 182 % of control"}, {"measurement": "T/C", "setting": "dose: 100.0 mg/kg/injection, schedule: Q01DX009 (oral), vehicle: saline with Tween-80", "value": "112 % of control"}, {"measurement": "T/C", "setting": "dose: 100.0 mg/kg/injection, schedule: Q04DX003 (ip), vehicle: distilled water + Tween-80", "value": "151 % of control"}, {"measurement": "T/C", "setting": "dose: 100.0 mg/kg/injection, schedule: Q04DX003 (ip), vehicle: saline with Tween-80", "value": "154 % of control"}, {"measurement": "T/C", "setting": "dose: 106.68 mg/kg/injection, schedule: Q01DX009 (ip), vehicle: water", "value": "214 % of control"}, {"measurement": "T/C", "setting": "dose: 120.0 mg/kg/injection, schedule: Q01DX001 (oral), vehicle: water", "value": "114 % of control"}, {"measurement": "T/C", "setting": "dose: 120.0 mg/kg/injection, schedule: Q01DX005 (ip), vehicle: water", "value": "184 % of control"}, {"measurement": "T/C", "setting": "dose: 150.0 mg/kg/injection, schedule: Q01DX009 (ip), vehicle: water", "value": "99 % of control"}, {"measurement": "T/C", "setting": "dose: 160.0 mg/kg/injection, schedule: Q01DX009 (ip), vehicle: water", "value": "231 % of control"}, {"measurement": "T/C", "setting": "dose: 178.0 mg/kg/injection, schedule: Q01DX001 (ip), vehicle: saline with Tween-80", "value": "124 % of control"}, {"measurement": "T/C", "setting": "dose: 200.0 mg/kg/injection, schedule: Q01DX009 (ip), vehicle: saline with Tween-80", "value": "120 % of control and 233 % of control"}, {"measurement": "T/C", "setting": "dose: 200.0 mg/kg/injection, schedule: Q01DX009 (ip), vehicle: saline", "value": "234 % of control and 90 % of control"}, {"measurement": "T/C", "setting": "dose: 200.0 mg/kg/injection, schedule: Q01DX009 (ip), vehicle: water", "value": "180 % of control"}, {"measurement": "T/C", "setting": "dose: 200.0 mg/kg/injection, schedule: Q04DX003 (ip), vehicle: distilled water + Tween-80", "value": "171 % of control"}, {"measurement": "T/C", "setting": "dose: 200.0 mg/kg/injection, schedule: Q04DX003 (ip), vehicle: saline with Tween-80", "value": "186 % of control and 190 % of control"}, {"measurement": "T/C", "setting": "dose: 240.0 mg/kg/injection, schedule: Q01DX001 (oral), vehicle: water", "value": "117 % of control"}, {"measurement": "T/C", "setting": "dose: 240.0 mg/kg/injection, schedule: Q01DX009 (ip), vehicle: water", "value": "87 % of control"}, {"measurement": "T/C", "setting": "dose: 264.0 mg/kg/injection, schedule: Q04DX003 (ip), vehicle: saline with Tween-80", "value": "227 % of control"}, {"measurement": "T/C", "setting": "dose: 400.0 mg/kg/injection, schedule: Q01DX001 (ip), vehicle: saline with Tween-80", "value": "159 % of control"}]}]}
